Assay results taken from patent US6043217A, “Amide derivative of amythiamicin” (Zaidan Hojin Biseibutsu Kagaku Kenyu Kai, priority 1996, dated 2000).

How the values were obtained:
Type in all cases: cell-based
[1] = test system: Staphylococcus aureus FDA 209P; test: MIC, standard serial dilution method; conditions: Muller-Hinton agar medium, 37° C.
[2] = test system: Staphylococcus aureus Smith; test: MIC, standard serial dilution method; conditions: Muller-Hinton agar medium, 37° C.
[3] = test system: Staphylococcus aureus MS 9610; test: MIC, standard serial dilution method; conditions: Muller-Hinton agar medium, 37° C.
[4] = test system: Staphylococcus aureus No. 5 (MRSA); test: MIC, standard serial dilution method; conditions: Muller-Hinton agar medium, 37° C.
[5] = test system: Staphylococcus aureus No. 17 (MRSA); test: MIC, standard serial dilution method; conditions: Muller-Hinton agar medium, 37° C.
[6] = test system: Staphylococcus aureus MS 16526; test: MIC, standard serial dilution method; conditions: Muller-Hinton agar medium, 37° C.
[7] = test system: Staphylococcus aureus TY-0428; test: MIC, standard serial dilution method; conditions: Muller-Hinton agar medium, 37° C.
[8] = test system: Micrococcus luteus FDA 16; test: MIC, standard serial dilution method; conditions: Muller-Hinton agar medium, 37° C.
[9] = test system: Micrococcus luteus IFO 3333; test: MIC, standard serial dilution method; conditions: Muller-Hinton agar medium, 37° C.
[10] = test system: Micrococcus luteus PIC 1001; test: MIC, standard serial dilution method; conditions: Muller-Hinton agar medium, 37° C.
[11] = test system: Bacillus anthracis; conditions: Muller-Hinton agar medium, 37° C.
[12] = test system: Bacillus subtilis NRRL B-558; test: MIC, standard serial dilution method; conditions: Muller-Hinton agar medium, 37° C.
[13] = test system: Bacillus subtilis PCI 219; test: MIC, standard serial dilution method; conditions: Muller-Hinton agar medium, 37° C.
[14] = test system: Bacillus cereus ATCC 10702; test: MIC, standard serial dilution method; conditions: Muller-Hinton agar medium, 37° C.
[15] = test system: Corynebacterium bovis 1810; test: MIC, standard serial dilution method; conditions: Muller-Hinton agar medium, 37° C.
[16] = test system: Escherichia coli NIHJ; test: MIC, standard serial dilution method; conditions: Muller-Hinton agar medium, 37° C.
[17] = test system: Escherichia coli K-12; test: MIC, standard serial dilution method; conditions: Muller-Hinton agar medium, 37° C.
[18] = test system: Escherichia coli BEM 11; test: MIC, standard serial dilution method; conditions: Muller-Hinton agar medium, 37° C.
[19] = test system: Escherichia coli BEM 1121; test: MIC, standard serial dilution method; conditions: Muller-Hinton agar medium, 37° C.
[20] = test system: Escherichia coli BE 1186; test: MIC, standard serial dilution method; conditions: Muller-Hinton agar medium, 37° C.
[21] = test system: Shigella dysenteria JS 11910; test: MIC, standard serial dilution method; conditions: Muller-Hinton agar medium, 37° C.
[22] = test system: Escherichia coli K-12 ML 1692; test: MIC, standard serial dilution method; conditions: Muller-Hinton agar medium, 37° C.
Method: (§1) The antibacterial activities of the amythiamicin amide derivative of the general formula (I) according to this invention are now concretely described. Compounds No. 1 to No. 11 according to this invention, which were respectively prepared in Examples 1 to 11 hereinafter given, were tested as the test compounds for their minimum inhibitory concentrations (MIC.) (μg/ml) against growth of a variety of test microorganisms by a standard serial dilution method. In the tests, the incubation medium used was Muller-Hinton agar medium and the incubation temperature was 37° C. The test results are shown as antibacterial spectra in the following Tables 2 and 3.

[23] = test system: Shigella clexnerl JS 11749; test: MIC, standard serial dilution method; conditions: Muller-Hinton agar medium, 37° C.
Method: as §1

[24] = test system: Shigella sonnei JS 11746; test: MIC, standard serial dilution method; conditions: Muller-Hinton agar medium, 37° C.
Method: as §1

[25] = test system: Salmonella typhi T-63; test: MIC, standard serial dilution method; conditions: Muller-Hinton agar medium, 37° C.
[26] = test system: Salmonella enteritidis 1891; test: MIC, standard serial dilution method; conditions: Muller-Hinton agar medium, 37° C.
[27] = test system: Proteus vulgaris OX 19; test: MIC, standard serial dilution method; conditions: Muller-Hinton agar medium, 37° C.
[28] = test system: Proteus mirabilis IFM OM-9; test: MIC, standard serial dilution method; conditions: Muller-Hinton agar medium, 37° C.
[29] = test system: Providencia rettgeri GN 311; test: MIC, standard serial dilution method; conditions: Muller-Hinton agar medium, 37° C.
[30] = test system: Providencia rettgeri GN 466; test: MIC, standard serial dilution method; conditions: Muller-Hinton agar medium, 37° C.
[31] = test system: Serratia marcescens; test: MIC, standard serial dilution method; conditions: Muller-Hinton agar medium, 37° C.
[32] = test system: Pseudomonas aeruginosa A3; test: MIC, standard serial dilution method; conditions: Muller-Hinton agar medium, 37° C.
[33] = test system: Pseudomonas aeruginosa GN315; test: MIC, standard serial dilution method; conditions: Muller-Hinton agar medium, 37° C.
[34] = test system: Klebsiella pneumonia PCI 602; test: MIC, standard serial dilution method; conditions: Klebsiella pneumonia PCI 602 (Table 2); Muller-Hinton agar medium, 37° C.
[35] = test system: Mycobacterium smegmatis ATCC 607; test: MIC, standard serial dilution method; conditions: Muller-Hinton agar medium, 37° C.
[36] = test system: Candida albicans 3147; test: MIC, standard serial dilution method; conditions: Muller-Hinton agar medium, 37° C.

CNC(=O)CC1NC(=O)c2csc(n2)-c2ccc(-c3nc(C(=O)NCCCN)cs3)nc2-c2csc(n2)-c2csc(n2)C(C(C)C)NC(=O)CNC(=O)c2csc(n2)C(C(C)C)NC(=O)c2nc1sc2C (stereo not drawn) [Compound No. 5]
Minimum growth inhibitory concentrations (MIC.) [1]: 0.78 µg/mL
Minimum growth inhibitory concentrations (MIC.) [2]: 3.12 µg/mL
Minimum growth inhibitory concentrations (MIC.) [3]: 3.12 µg/mL
Minimum growth inhibitory concentrations (MIC.) [4]: 6.25 µg/mL
Minimum growth inhibitory concentrations (MIC.) [5]: 6.25 µg/mL
Minimum growth inhibitory concentrations (MIC.) [6]: 6.25 µg/mL
Minimum growth inhibitory concentrations (MIC.) [7]: 3.12 µg/mL
Minimum growth inhibitory concentrations (MIC.) [8]: 12.5 µg/mL
Minimum growth inhibitory concentrations (MIC.) [9]: 3.12 µg/mL
Minimum growth inhibitory concentrations (MIC.) [10]: 0.78 µg/mL
Minimum growth inhibitory concentrations (MIC.) [11]: 0.78 µg/mL
Minimum growth inhibitory concentrations (MIC.) [12]: 6.25 µg/mL
Minimum growth inhibitory concentrations (MIC.) [13]: 3.12 µg/mL
Minimum growth inhibitory concentrations (MIC.) [14]: 1.56 µg/mL
Minimum growth inhibitory concentrations (MIC.) [15]: > 100 µg/mL
Minimum growth inhibitory concentrations (MIC.) [16]: > 100 µg/mL
Minimum growth inhibitory concentrations (MIC.) [17]: > 100 µg/mL
Minimum growth inhibitory concentrations (MIC.) [18]: > 100 µg/mL
Minimum growth inhibitory concentrations (MIC.) [19]: > 100 µg/mL
Minimum growth inhibitory concentrations (MIC.) [20]: > 100 µg/mL
Minimum growth inhibitory concentrations (MIC.) [21]: > 100 µg/mL
Minimum growth inhibitory concentrations (MIC.) [22]: > 100 µg/mL
Minimum growth inhibitory concentrations (MIC.) [23]: > 100 µg/mL
Minimum growth inhibitory concentrations (MIC.) [24]: > 100 µg/mL
Minimum growth inhibitory concentrations (MIC.) [25]: > 100 µg/mL
Minimum growth inhibitory concentrations (MIC.) [26]: > 100 µg/mL
Minimum growth inhibitory concentrations (MIC.) [27]: > 100 µg/mL
Minimum growth inhibitory concentrations (MIC.) [28]: > 100 µg/mL
Minimum growth inhibitory concentrations (MIC.) [29]: > 100 µg/mL
Minimum growth inhibitory concentrations (MIC.) [30]: > 100 µg/mL
Minimum growth inhibitory concentrations (MIC.) [31]: > 100 µg/mL
Minimum growth inhibitory concentrations (MIC.) [32]: > 100 µg/mL
Minimum growth inhibitory concentrations (MIC.) [33]: > 100 µg/mL
Minimum growth inhibitory concentrations (MIC.) [34]: > 100 µg/mL
Minimum growth inhibitory concentrations (MIC.) [35]: > 100 µg/mL
Minimum growth inhibitory concentrations (MIC.) [36]: > 100 µg/mL
